Tests used:
[1] = Stability of photoswitch in presence of TCEP during derivatization reaction; type: physicochemical; details: 1 mM TCEP, pH 8.5, 35° C., 16 h
Protocol: Freshly degassed and reduced SpA #2 (650 μM, 1.3 μmol, 10 mg, 1 eq) in a total volume of 2 ml was diluted with the same degassed buffer (100 mM sodium borate, 150 mM NaCl, 1 mM TCEP, pH 8.5) to a final protein concentration of 50 μM. This solution was stirred under nitrogen atmosphere while 2.2 mg PS2 (2.6 μmol, 2 eq) dissolved in 0.26 ml DMF, which has been illuminated with red light (635 nm) for 5 min, was added in one portion. The reaction was illuminated with red light and stirred for 16 h at 35° C. […] The derivatization reaction results in a […] amount of intramolecular cross-linked species. Further purification steps by anion exchange chromatography and SEC were performed to remove small amounts of cross-linked species and higher oligomers.

[2] = Thermal cis to trans relaxation of PS4, HPLC; type: physicochemical; details: 25° C., kept in the dark after yellow light (593 nm) for 2 min
[3] = test system: immunoglobulin G (IgG) mixture (Cutaquig); assay: Light-controlled affinity purification of IgG from polyclonal antibody mixture Cutaquig; type: binding; details: sample application and washing under red light, elution under blue light; immobilized on NHS-Agarose
Protocol: For the functional assessment of the light-switchable affinity matrices, these were encased within a transparent acrylic glass housing, featuring a thickness of 2 mm, to achieve a settled bed volume (SBV) of 250 μl. A LED array equipped with lenses capable of alternating between peak wavelengths of 635 nm (red) and 465 nm (blue) was positioned adjacent to the housing. This configuration ensured thorough and efficient illumination of the entire resin material contained within. The performance of the light-switchable affinity matrix was tested using the polyclonal antibody mixture Cutaquig® (Octapharma) as a substrate.
Initially, the column was equilibrated with 3 mL of running buffer (50 mM TrisHCl, pH 7.6, 150 mM NaCl) using an FPLC system (AKTA Pure 25, Cytiva Life Science). The affinity matrix was then loaded with sample to achieve a 60% breakthrough. Unbound proteins and impurities were removed by washing the column with 7.5 mL of the same running buffer. Both, the sample application and washing steps were performed under red visible light illumination at 635 nm to ensure binding conditions. Following this, the elution of bound immunoglobulin G (IgG) was initiated by switching the illumination to blue visible light at 465 nm, which induces the release of the bound IgG. The resin was regenerated by again illuminating with red visible light at 635 nm, preparing it for subsequent use. […]

For `COc1cc(-c2ccc(NC(=O)CCl)c(C(=O)NCC(=O)O)c2)cc(OC)c1/N=N/c1c(OC)cc(-c2ccc(NC(=O)CCl)c(C(=O)NCC(=O)O)c2)cc1OC` [PS2, 4′-(2-(4-(2-chloroacetamido)-3′,5′-dimethoxybiphenyl-3-ylcarboxyamido)acetic acid)-4′-(2-(4-(2-chloroacetamido)-3′,5′-dimethoxybiphenyl-3-ylcarboxyamido)acetic acid)diazene], the “stability in the presence of TCEP” value [1] was “stable”.

In the case of `O=C(O)CNC(=O)c1cc(-c2cc(F)c(/N=N/c3c(F)cc(-c4ccc(NC(=O)CCl)c(C(=O)NCC(=O)O)c4)cc3F)c(F)c2)ccc1NC(=O)CCl` [PS4, 4′-(2-(4-(2-chloroacetamido)-3′,5′-difluorobiphenyl-3-ylcarboxyamido)acetic acid)-4′-(2-(4-(2-chloroacetamido)-3′,5′-difluorobiphenyl-3-ylcarboxyamido)acetic acid)diazene], the “t1/2 (cis→trans)” value [2] is reported as no less than 24 h.

B1: Ps2-SpG #1: Protein G variant SpG #1 (SEQ ID NO. 18) modified with photoswitch PS2 (conjugate)
chain: MATKASKGGGGTTYRLILNGVTLSGETTTEACDAATAERVFRQYANDYGVDGEWTYDCATRTFTVTEGEDEDEDED
modifications: photoswitch PS2
With B1 the “binding and light-controlled elution of IgG (chromatogram)” value [3] was “elution of specifically bound IgG molecules is initiated by blue light illumination”.

B2: Ps2-Ppl #1: Protein L variant PpL #1 (SEQ ID NO. 19) modified with photoswitch PS2 (conjugate)
chain: MATKASKGGGGASEEVTIRVNLIFADGSTQCAEFRGTFEEATAEAYAYADLLARENGEYTACLEDGGNTINIRFAGEDEDEDED
modifications: photoswitch PS2
For B2, the “binding and light-controlled elution of IgG (chromatogram)” value [3] was “elution of specifically bound IgG molecules is initiated by blue light illumination”.

Source: patent US20260265179A1, “PHOTOSWITCHABLE COMPOUNDS AND AFFINITY LIGANDS, AND THEIR USE FOR THE OPTICAL CONTROL OF AFFINITY MATRICES” (AFC Innovations GmbH, priority 2023, published 2026)
